Laboratory results published in patent publication US6087493A, “Porphyrin compounds as telomerase inhibitors” (Regents of the University of Texas System, priority 1998, dated 2000).
Where two headings read alike, the source gives them in different places.

Tests used:
[1] = molecular target: human telomerase (Homo sapiens, UniProt O14746); assay: Telomerase inhibition, primer extension assay in HeLa cell extract; type: biochemical
[2] = tested on: Daudi; assay: cells; type: cell-based, human; details: Homo sapiens; Daudi (lymphoma), 4-7 days; read-out: IC 50 cytotoxicity
Experimental: The cells were cultured in the presence of the porphyrins incubator for 4-7 days and then treated with 3-(4,5-dimethylthiazol-2-yl)-2,5-diphenyl-tetrazolium bromide (MTT). Formazan concentration was quantitated by absorbance at 570 nm.

[3] = in vitro; type: cell-based; details: human, hs578bst cells; HS578 Bst, Thy (n = 3 ± SEM); read-out: Cytotoxicity
Experimental: Cytotoxicity of the compounds to human breast cancer cells in vitro was assessed using a panel of cell lines representing estrogen receptor-positive (BT20, MCF-7m), and a pair of estrogen receptor-negative, transformed breast (11S578t) and normal breast (HS578Bst) cells.
Thy: tritiated […] assay (n = 3 ± SEM)

[4] = tested on: MCF7 human breast carcinoma cells (telomerase activity); assay: Telomerase activity in intact MCF7 cells cultured with porphyrin; type: cell-based; details: 1, 10 and 100 μM, days 4, 8 and 15
Experimental: To determine the long-term effects of TMPyP4 on whole cells, MCF7 breast carcinoma cells were cultured in the continuous presence of 1, 10, and 100 μM TMPyP4. The porphyrin solution was freshly added to the medium from the concentrated stock at each passage of the cells (every 3-4 days). On days 4, 8, and 15, the cells were lysed and the telomerase activity was measured in the extracts.
Breast cancer cells MCF-7m, BT20, HS578t and normal HS578Bst cells were grown in culture in T75 flasks (10^6 cells/flask). […] The cells were harvested and freeze-thawed and the extracts used to measure telomerase activity using the Dynabeads method.

[5] = tested on: MCF7 cells; assay: Nuclear localization of TMPyP4 in MCF7 cells; type: cell-based, human
Experimental: MCF7 cells were seeded at 5×10^5 cells per flask and cultured in the presence of 0, 50, or 100 μM TMPyP4 for 7 days with one exchange of medium. The cells were harvested with trypsin-EDTA, washed with PBS and counted using a Coulter counter. The cells were then pelleted by centrifugation at 700 g and lysed in a hypotonic solution (0.1×PBS);the resulting lysate was sedimented at 700 g for 10 min. The supernatant was removed and the pellet was dissolved in 0.5 ml of 2% SDS. Absorbance of the supernatants and pellet was measured at 423 nm. TMPyP4 diluted in 2% SDS containing 1 mg/ml salmon sperm DNA was used for the standard curve.
Several reports indicate that porphyrins localize specifically in tumor tissue, although sites of subcellular localization may vary widely with porphyrin structure and net charge (De Paolis et al., 1985). […] To gain insight into the subcellular distribution of cationic porphyrins, the inventors have cultured MCF7 cells with 0, 50, or 100 μM TMPyP4 for 7 days.

[6] = tested on: DNA quadruplex in single-stranded template with four telomeric repeats; assay: DNA synthesis arrest assay (Taq DNA polymerase); type: biochemical
Experimental: This assay was a modification of that described by Weitzmann et al. (Wang and Patel, 1993). Briefly, primers (24 nM) labeled with [γ-^32 P] ATP were mixed with template DNA PQ74 (12 nM) in a Tris-HCl buffer (10 mM Tris, pH 8.0) containing 10 mM MgCl2 and heated at 90° C. for 4 min. After cooling at room temperature for 15 min, spermidine (to give 100 μM) and TMPyP4 (to give the concentrations indicated in the figure) were added. The primer extension reactions were initiated by adding dNTP (final concentration 100 μM) and Taq DNA polymerase (2.5 U/reaction, Boehringer Mannheim). The reactions were incubated at 55 C. (or otherwise as indicated) for 15 min, then stopped by adding an equal volume of stop buffer (95% formamide, 10 mM EDTA, 10 mM NaOH, 0.1% xylene cyanol, 0.1% bromophenol blue). The products were separated on a 12% polyacrylamide sequencing gel.
A single-stranded DNA template, which included four telomeric repeats, was taken, and an 18-base primer complementary to the […] was extended using Taq DNA polymerase.

[7] = tested on: MX-1 mammary carcinoma; details: for # CR's: n=20
Experimental: A MX-1 human breast tumor adjuvant model employed nude mice (Harlan Sprague Dawley, Inc.). The mice were implanted s.c. by trocar with fragments of MX-1 mammary carcinomas harvested from S.C. growing MX-1 tumors in nude mice hosts. When tumors were approximately 5 mm×5 mm in size (about 10 days after inoculation), the animals received cytoxan at 200 mg/kg. After tumors regressed (fifteen days after cytoxan administration), the animals were pair-matched into groups of mice, each of which was eartagged and followed individually throughout the experiment. The i.p. daily administration of TMPyP4 at 10 and 20 mg/kg five times weekly, began the day the animals were pairmatched (Day 1). TMPyP4 20 mg/kg was administered for 47 days. At the 10 mg/kg dose, TMPyP4 was administered continuously to the end of the study.
Mice were weighed twice weekly and tumor measurements were taken by calipers twice weekly, starting on Day 1. These tumor measurements were converted to mg tumor weight by a well-known formula, and from these calculated tumor weights, the termination date for each individual mouse was determined. Mice were euthanized when their tumors reached approximately 2 grams. Time to tumor recurrence and survival were monitored during the study.

[8] = tested on: HeLa cells; assay: Chromosome fusion in HeLa cells; type: cell-based, human; details: 3 μM, 2-4 days
[9] = tested on: cultured human dermal fibroblasts; details: Georgiou et al., 1994, cited from earlier work
[10] = listed as tetra(N-methyl-4-pyridyl)porphyrin

Sequence of human telomerase (O14746 whole entry): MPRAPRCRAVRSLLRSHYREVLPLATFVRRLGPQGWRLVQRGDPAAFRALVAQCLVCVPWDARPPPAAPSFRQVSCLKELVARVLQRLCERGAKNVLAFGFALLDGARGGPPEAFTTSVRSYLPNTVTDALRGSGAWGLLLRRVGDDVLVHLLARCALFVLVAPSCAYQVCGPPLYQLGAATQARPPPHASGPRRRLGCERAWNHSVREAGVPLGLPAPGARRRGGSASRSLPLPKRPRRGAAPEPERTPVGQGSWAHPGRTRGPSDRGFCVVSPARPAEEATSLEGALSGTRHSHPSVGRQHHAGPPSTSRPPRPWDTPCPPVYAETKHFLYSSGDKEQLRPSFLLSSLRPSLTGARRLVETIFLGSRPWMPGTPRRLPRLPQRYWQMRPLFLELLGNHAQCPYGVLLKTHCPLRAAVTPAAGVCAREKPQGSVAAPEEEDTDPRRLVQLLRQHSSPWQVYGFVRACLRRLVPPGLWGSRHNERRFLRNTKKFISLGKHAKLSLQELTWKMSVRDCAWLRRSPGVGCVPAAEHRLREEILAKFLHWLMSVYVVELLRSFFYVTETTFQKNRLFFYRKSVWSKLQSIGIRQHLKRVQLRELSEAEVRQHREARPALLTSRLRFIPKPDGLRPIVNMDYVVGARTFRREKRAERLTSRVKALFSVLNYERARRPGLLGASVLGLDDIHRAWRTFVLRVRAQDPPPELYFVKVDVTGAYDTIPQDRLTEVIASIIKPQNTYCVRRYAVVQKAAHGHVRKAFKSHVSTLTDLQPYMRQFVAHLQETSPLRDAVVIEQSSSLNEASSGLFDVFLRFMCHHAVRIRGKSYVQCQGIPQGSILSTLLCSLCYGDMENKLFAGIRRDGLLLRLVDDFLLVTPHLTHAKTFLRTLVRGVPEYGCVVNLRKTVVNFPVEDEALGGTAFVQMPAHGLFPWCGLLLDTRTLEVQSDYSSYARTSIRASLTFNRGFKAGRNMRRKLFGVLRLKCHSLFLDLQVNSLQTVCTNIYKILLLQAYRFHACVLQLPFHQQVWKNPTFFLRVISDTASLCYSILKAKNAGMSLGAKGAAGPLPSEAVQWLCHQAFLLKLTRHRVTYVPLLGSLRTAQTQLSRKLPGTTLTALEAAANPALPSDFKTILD

C[n+]1ccc(-c2c3nc(c(-c4cc[n+](C)cc4)c4ccc([nH]4)c(-c4cc[n+](C)cc4)c4nc(c(-c5cc[n+](C)cc5)c5ccc2[nH]5)C=C4)C=C3)cc1 [TMPyP4, 5,10,15,20-tetra-(N-methyl-4-pyridyl)porphine]
% Inhibition of telomerase ([1]; 25 µM): 60% | IC50 ([1]; IC50 telomerase): 6.5 ± 1.4 µM | IC50 ([1]; IC50 telomerase (text)): 6.5 ± 1.4 µM | IC50 ([1]; Telomerase Inhibition): 15 µM | inhibition at 25 µM ([1]; read-out: amount of inhibition of telomerase): 72% | IC50 [2]: 3.1 µM | CC50 [3]: > 100 µM | telomerase activity in intact MCF7 cells [4]: clear concentration-dependent loss of telomerase activity | telomerase activity in intact MCF7 cells [4, 10]: telomerase activity is reduced relative to control cells | cytoplasm as % of nuclear fraction concentration ([5]; 50 μM TMPyP4, 7 days): 3.3% | porphyrin concentration in the nuclear pellet ([5]; 50 μM TMPyP4, 7 days): 1.39 nmoles/10^6 cells | porphyrin in cytoplasm ([5]; 50 μM TMPyP4, 7 days): 47.3 pmoles/10^6 cells | cytoplasm as % of nuclear pellet concentration ([5]; 100 μM TMPyP4, 7 days): 5.5% | porphyrin concentration in the nuclear fraction ([5]; 100 μM TMPyP4, 7 days): 7.81 nmoles/10^6 cells | porphyrin in cytoplasmic fraction ([5]; 100 μM TMPyP4, 7 days): 434 pmoles/10^6 cells | calculated concentration in the nucleus ([5]; assuming nucleus 1/100 of cell volume): 1.4 to 78 mM | calculated concentration in the cytoplasm ([5]; assuming volume of 10^6 cells 10-100 μl): 0.47 to 434 µM | melting temperature of the quadruplex [6]: increased the melting temperature of the quadruplex | pause site band intensity ([6]; Tris buffer without K+ or Na+): more intense in a concentration-dependent manner | persistence of bands at the pause site ([6]; temperature dependence): up to 65 °C | # PS Remaining ([7]; 10 mg/kg): 0 | # Partial Shrinkage ([7]; 10 mg/kg): 2 | # Recur at 2 g ([7]; 10 mg/kg): 6 | # Remaining w/Tumors ([7]; 10 mg/kg): 1 | # of Recur ([7]; 10 mg/kg): 8 | # of Survivors ([7]; 10 mg/kg): 11 | # of Toxic Deaths ([7]; 10 mg/kg): 1 | % CR's ([7]; 10 mg/kg): 90% | Avg Day of Recur ([7]; 10 mg/kg): 25 days | MDS ([7]; 10 mg/kg): 55 | MDS-Partial Shrinkages ([7]; 10 mg/kg): 36.0 | Mean Tumor Wt. ([7]; 10 mg/kg): 11.52 mg | # CR's ([7]; 10 mg/kg i.p. daily five times weekly): 18 | # PS Remaining ([7]; 20 mg/kg): 0 | # Partial Shrinkage ([7]; 20 mg/kg): 5 | # Recur at 2 g ([7]; 20 mg/kg): 8 | # Remaining w/Tumors ([7]; 20 mg/kg): 0 | # of Recur ([7]; 20 mg/kg): 9 | # of Survivors ([7]; 20 mg/kg): 6 | # of Toxic Deaths ([7]; 20 mg/kg): 1 | % CR's ([7]; 20 mg/kg): 75% | Avg Day of Recur ([7]; 20 mg/kg): 19.33 days | MDS ([7]; 20 mg/kg): 67.4 | MDS-Partial Shrinkages ([7]; 20 mg/kg): 44.6 | # CR's ([7]; 20 mg/kg i.p. daily five times weekly): 15 | fused chromosomes [8]: number of fused chromosomes was increased in comparison with the untreated controls | uptake / nuclear accumulation [9]: rapidly accumulate (within min) in the nuclei of cultured human dermal fibroblasts | uptake / nuclear accumulation [9, 10]: taken up by cells and localized in organelles known to contain DNA
